ChEMBL document CHEMBL2429822, “Imaging probes of tau pathology” (ACS Med Chem Lett, 2013)
Calls of active or inactive are those of the source. The calls are words filed in the database; no cut-off is given here.

What was measured:
Brain [1] = experiment: Ratio of clearance in Wistar rat brain at 50 ug after 2 mins to clearance in Wistar rat brain at 50 ug after 30 mins; assay type: ADME, tissue-based; settings: in vivo
Brain [2] = experiment: Biodistribution in Wistar rat brain at 50 ug, iv after 30 mins by […] analysis; assay type: ADME, organism-based; settings: in vivo, 0.5 h
Brain [3] = experiment: Biodistribution in Wistar rat brain at 50 ug, iv after 60 mins by […] analysis; assay type: ADME, organism-based; settings: in vivo, 1 h
Brain [4] = experiment: Biodistribution in Wistar rat brain at 50 ug, iv after 10 mins by […] analysis; assay type: ADME, organism-based; settings: in vivo
Brain [5] = experiment: Biodistribution in Wistar rat brain at 50 ug, iv after 2 mins by […] analysis; assay type: ADME, organism-based; settings: in vivo
[6] = molecular target: Amyloid-beta precursor protein (Homo sapiens) (UniProt P05067); experiment: Binding affinity to human amyloid-beta plaques at 1 uM by fluorescence microscopy
[7] = molecular target: Amyloid-beta precursor protein (Homo sapiens) (UniProt P05067); experiment: Binding affinity to human amyloid-beta plaques at 10 uM by fluorescence microscopy
[8] = molecular target: Amyloid-beta precursor protein (Homo sapiens) (UniProt P05067); experiment: Binding affinity to human amyloid-beta plaques at 100 uM by fluorescence microscopy
[9] = molecular target: Microtubule-associated protein tau (Homo sapiens) (UniProt P10636); experiment: Binding affinity to human tau associated NFTs at 1 uM by fluorescence microscopy
[10] = molecular target: Microtubule-associated protein tau (Homo sapiens) (UniProt P10636); experiment: Binding affinity to human tau associated NFTs at 10 uM by fluorescence microscopy
[11] = molecular target: Microtubule-associated protein tau (Homo sapiens) (UniProt P10636); experiment: Binding affinity to human tau associated NFTs at 100 uM by fluorescence microscopy
Brain [12] = experiment: Ratio of clearance in C57B1/6 mouse brain at 2 MBq after 2 mins to clearance in C57B1/6 mouse brain at 2 MBq after 30 mins; assay type: ADME, tissue-based; settings: in vivo
Brain [13] = experiment: Biodistribution in C57B1/6 mouse brain at 2 MBq, iv after 60 mins by gamma-counting analysis; assay type: ADME, organism-based; settings: in vivo, 1 h
Brain [14] = experiment: Biodistribution in C57B1/6 mouse brain at 2 MBq, iv after 30 mins by gamma-counting analysis; assay type: ADME, organism-based; settings: in vivo, 0.5 h
Brain [15] = experiment: Biodistribution in C57B1/6 mouse brain at 2 MBq, iv after 10 mins by gamma-counting analysis; assay type: ADME, organism-based; settings: in vivo
Brain [16] = experiment: Biodistribution in C57B1/6 mouse brain at 2 MBq, iv after 2 mins by gamma-counting analysis; assay type: ADME, organism-based; settings: in vivo
[17] = tested as the 11C-labelled form

Chain of Microtubule-associated protein tau (Homo sapiens) (P10636 whole entry): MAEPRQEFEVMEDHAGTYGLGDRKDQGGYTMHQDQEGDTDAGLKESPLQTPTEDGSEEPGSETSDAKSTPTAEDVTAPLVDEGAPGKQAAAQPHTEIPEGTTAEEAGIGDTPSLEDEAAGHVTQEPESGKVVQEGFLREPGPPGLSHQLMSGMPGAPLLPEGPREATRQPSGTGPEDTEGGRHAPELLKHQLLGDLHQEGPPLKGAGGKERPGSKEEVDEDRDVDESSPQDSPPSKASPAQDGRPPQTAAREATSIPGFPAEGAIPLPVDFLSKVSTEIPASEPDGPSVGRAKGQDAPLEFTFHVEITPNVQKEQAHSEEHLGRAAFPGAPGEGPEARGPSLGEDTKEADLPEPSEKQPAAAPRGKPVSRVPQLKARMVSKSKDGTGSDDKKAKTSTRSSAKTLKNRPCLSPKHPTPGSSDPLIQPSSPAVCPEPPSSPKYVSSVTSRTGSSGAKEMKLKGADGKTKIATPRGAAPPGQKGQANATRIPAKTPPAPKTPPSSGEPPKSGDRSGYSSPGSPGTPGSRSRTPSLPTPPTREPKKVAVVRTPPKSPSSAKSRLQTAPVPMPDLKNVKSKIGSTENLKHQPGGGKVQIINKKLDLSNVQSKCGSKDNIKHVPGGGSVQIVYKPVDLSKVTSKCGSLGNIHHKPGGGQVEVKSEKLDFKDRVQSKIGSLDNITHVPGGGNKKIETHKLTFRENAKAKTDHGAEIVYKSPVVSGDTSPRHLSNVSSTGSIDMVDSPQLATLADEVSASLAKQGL
Chain of Amyloid-beta precursor protein (Homo sapiens) (P05067 whole entry): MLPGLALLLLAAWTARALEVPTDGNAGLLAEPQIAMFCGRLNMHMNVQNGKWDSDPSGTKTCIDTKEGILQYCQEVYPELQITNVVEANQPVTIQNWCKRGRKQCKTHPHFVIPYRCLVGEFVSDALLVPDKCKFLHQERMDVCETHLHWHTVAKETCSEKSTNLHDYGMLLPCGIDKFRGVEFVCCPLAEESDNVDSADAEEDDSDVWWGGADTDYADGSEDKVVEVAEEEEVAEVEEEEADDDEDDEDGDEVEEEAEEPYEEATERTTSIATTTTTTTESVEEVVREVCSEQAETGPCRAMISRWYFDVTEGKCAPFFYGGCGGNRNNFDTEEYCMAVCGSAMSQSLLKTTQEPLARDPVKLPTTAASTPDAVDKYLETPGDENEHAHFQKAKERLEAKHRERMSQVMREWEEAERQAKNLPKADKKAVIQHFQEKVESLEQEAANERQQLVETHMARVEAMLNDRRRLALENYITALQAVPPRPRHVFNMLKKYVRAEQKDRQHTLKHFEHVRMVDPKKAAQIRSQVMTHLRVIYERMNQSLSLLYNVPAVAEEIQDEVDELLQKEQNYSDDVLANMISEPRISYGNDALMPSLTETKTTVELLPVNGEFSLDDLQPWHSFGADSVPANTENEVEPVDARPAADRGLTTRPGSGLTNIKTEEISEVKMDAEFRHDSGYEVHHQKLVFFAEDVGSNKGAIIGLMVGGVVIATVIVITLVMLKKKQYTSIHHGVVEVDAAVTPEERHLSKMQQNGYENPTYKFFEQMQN

Activity [7]	Activity [8]	Activity [9]	Activity [10]	Activity [11]	Compound	other results
Active	Active	Active	Active	Active	CC(C)NC(=O)c1nn(-c2ccc(OCCF)cc2)c(=O)c2c(N)scc12	Ratio (Brain [1]): 13.3; Drug uptake (Brain [2]): 0.021%; Drug uptake (Brain [3]): 0.011%; Drug uptake (Brain [4]): 0.081%; Drug uptake (Brain [5]): 0.28%; Activity [6]: inactive
	inactive			inactive	CC(C)NC(=O)c1nn(-c2ccc(OCCCF)cc2)c(=O)c2c(N)scc12	
	inactive			inactive	CC(C)(C)OC(=O)c1nn(-c2ccc(OCCF)cc2)c(=O)c2c(N)scc12	
	inactive			inactive	CC(C)NC(=O)c1nn(-c2ccc(OCC(O)CF)cc2)c(=O)c2c(N)scc12 (configuration not stated)	
					CC(C)NC(=O)c1nn(-c2ccc(OCCC[18F])cc2)c(=O)c2c(N)scc12	Ratio (Brain [12]): 2.8; Drug uptake (Brain [13]): 1.51%; Drug uptake (Brain [14]): 3.46%; Drug uptake (Brain [15]): 5.77%; Drug uptake (Brain [16]): 9.84%
					CNc1ccc(-c2nc3ccc(O)cc3s2)cc1	Activity [6, 17]: Active; Activity [7, 17]: Active; Activity [8, 17]: Active; Activity [9, 17]: inactive; Activity [10, 17]: Active; Activity [11, 17]: Active
Active	Active	Active	Active	Active	CC(=C(C#N)C#N)c1ccc2cc(N(C)CCF)ccc2c1	Activity [6]: Active
inactive	Active	inactive	Active	Active	CC(C)NC(=O)c1nn(-c2ccc([N+](=O)[O-])cc2)c(=O)c2c(N)scc12	
	inactive			inactive	CC(C)NC(=O)c1nn(-c2ccc(OCCF)cc2)c(=O)c2c(NC(=O)OC(C)(C)C)scc12	
inactive	Active	inactive	inactive	Active	CC(C)NC(=O)c1nn(-c2ccc(F)cc2)c(=O)c2c(N)scc12	Activity [6]: inactive
					CC(C)NC(=O)c1nn(-c2ccc(OCC[18F])cc2)c(=O)c2c(N)scc12	Ratio (Brain [12]): 2.3; Drug uptake (Brain [13]): 2.35%; Drug uptake (Brain [14]): 2.83%; Drug uptake (Brain [15]): 3.26%; Drug uptake (Brain [16]): 6.5%
